Reference: patent US9113629B2, “4-amino-6-(4-substituted-phenyl)-picolinates and 6-amino-2-(4-substituted-phenyl)-pyrimidine-4-carboxylates and their use as herbicides” (DOW AGROSCIENCES LLC, priority 2013, dated 2015)
Where two headings read alike, the source gives them in different places.

Assays:
[1] = system: Key Grass and Sedge Weeds as well as Grass Crops; test: Post-emergent Test II herbicidal activity (Table 6); assay type: in vivo; conditions: post-emergence, 336 h; for pest or weed control at 70 g/ha: application rate 70 g ai/ha; for pest or weed control at 140 g/ha: application rate 140 g ai/ha
Outline: (§1)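 Spray rates: a highest rate plus ½×, ¼×, ⅛×, 1/16×, all delivered at 187 L/ha to plants at the first–second true leaf stage. Readout is a visual percent injury score at 14 d, where 100 means complete kill.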

[2] = system: Key Broadleaf Weed and Crop Species; test: Post-emergent Test II herbicidal activity (Table 5); assay type: in vivo; conditions: post-emergence, 336 h, post-emergent, 14 days after application; for pest or weed control at 70 g/ha: 70 g ai/ha; for pest or weed control at 140 g/ha: 140 g ai/ha
Outline: as §1

[3] = Triticum aestivum, TRZSS (wheat), read-out: Visual Growth Reduction (%) 14 Days After Application, TRZSS
[4] = CYPES: yellow nutsedge (Cyperus esculentus), read-out: Visual Growth Reduction (%) 14 Days After Application, CYPES
[5] = DIGSA: crabgrass (Digitaria sanguinalis), read-out: Visual Growth Reduction (%) 14 Days After Application, DIGSA
[6] = ECHCG: barnyardgrass (Echinochloa crus-galli), read-out: Visual Growth Reduction (%) 14 Days After Application, ECHCG
[7] = ORYSA: rice (Oryza sativa), read-out: Visual Growth Reduction (%) 14 Days After Application, ORYSA
[8] = SETFA: giant foxtail (Setaria faberi), read-out: Visual Growth Reduction (%) 14 Days After Application, SETFA
[9] = SORVU: grain sorghum (Sorghum vulgare), read-out: Visual Growth Reduction (%) 14 Days After Application, SORVU
[10] = ZEAMX: maize, corn (Zea mays), read-out: Visual Growth Reduction (%) 14 Days After Application, ZEAMX
[11] = ABUTH: velvetleaf (Abutilon theophrasti), read-out: Visual Growth Reduction (%) 14 Days After Application ABUTH
[12] = AMARE: redroot pigweed (Amaranthus retroflexus), read-out: Visual Growth Reduction (%) 14 Days After Application AMARE
[13] = BRSNN: oilseed-rape, canola (Brassica napus), read-out: Visual Growth Reduction (%) 14 Days After Application BRSNN
[14] = CHEAL: lambsquarters (Chenopodium album), read-out: Visual Growth Reduction (%) 14 Days After Application CHEAL
[15] = EPHHL: wild poinsettia (Euphorbia heterophylla), read-out: Visual Growth Reduction (%) 14 Days After Application EPHHL
[16] = HELAN: sunflower (Helianthus annuus), read-out: Visual Growth Reduction (%) 14 Days After Application HELAN
[17] = VIOTR: wild pansy (Viola tricolor), read-out: Visual Growth Reduction (%) 14 Days After Application VIOTR

COC(=O)c1nc(-c2ccc(C(N)=O)cc2)c(F)c(N)c1Cl [Compound 192]
0 to 29%: pest or weed control at 70 g/ha [1, 3] | pest or weed control at 140 g/ha [1, 3] | pest or weed control at 70 g/ha [1, 4] | pest or weed control at 140 g/ha [1, 4] | pest or weed control at 70 g/ha [1, 5] | pest or weed control at 140 g/ha [1, 5] | pest or weed control at 70 g/ha [1, 6] | pest or weed control at 140 g/ha [1, 6] | pest or weed control at 70 g/ha [1, 7] | pest or weed control at 140 g/ha [1, 7] | pest or weed control at 70 g/ha [1, 8] | pest or weed control at 140 g/ha [1, 8] | pest or weed control at 70 g/ha [1, 9] | pest or weed control at 140 g/ha [1, 9] | pest or weed control at 70 g/ha [1, 10] | pest or weed control at 140 g/ha [1, 10] | pest or weed control at 70 g/ha [2, 11] | pest or weed control at 140 g/ha [2, 11] | pest or weed control at 70 g/ha [2, 12] | pest or weed control at 140 g/ha [2, 12] | pest or weed control at 70 g/ha [2, 13] | pest or weed control at 140 g/ha [2, 13] | pest or weed control at 70 g/ha [2, 14] | pest or weed control at 140 g/ha [2, 14] | pest or weed control at 70 g/ha [2, 15] | pest or weed control at 140 g/ha [2, 15] | pest or weed control at 70 g/ha [2, 16] | pest or weed control at 140 g/ha [2, 16] | pest or weed control at 70 g/ha [2, 17] | pest or weed control at 140 g/ha [2, 17]
192 to 195 °C: melting point

C=Cc1c(C(=O)O)nc(-c2ccc(C(F)(F)F)c(F)c2)c(F)c1N [Compound 86]
85 to 94%: pest or weed control at 140 g/ha [1, 6]
60 to 74%: pest or weed control at 70 g/ha [1, 10] | pest or weed control at 140 g/ha [1, 10]
120 to 122 °C: melting point
45 to 59%: pest or weed control at 140 g/ha [1, 7]
30 to 44%: pest or weed control at 70 g/ha [1, 7]
0 to 29%: pest or weed control at 70 g/ha [1, 3] | pest or weed control at 140 g/ha [1, 3] | pest or weed control at 70 g/ha [1, 5] | pest or weed control at 140 g/ha [1, 5] | pest or weed control at 70 g/ha [1, 8] | pest or weed control at 140 g/ha [1, 8]
95 to 100%: pest or weed control at 70 g/ha [1, 4] | pest or weed control at 140 g/ha [1, 4] | pest or weed control at 70 g/ha [2, 11] | pest or weed control at 140 g/ha [2, 11] | pest or weed control at 140 g/ha [2, 13] | pest or weed control at 70 g/ha [2, 14] | pest or weed control at 140 g/ha [2, 14] | pest or weed control at 70 g/ha [2, 15] | pest or weed control at 140 g/ha [2, 15] | pest or weed control at 70 g/ha [2, 16] | pest or weed control at 140 g/ha [2, 16] | pest or weed control at 70 g/ha [2, 17] | pest or weed control at 140 g/ha [2, 17]
75 to 84%: pest or weed control at 70 g/ha [1, 6] | pest or weed control at 70 g/ha [1, 9] | pest or weed control at 70 g/ha [2, 13]

Nc1cc(-c2cc(F)c(Br)cc2F)nc(C(=O)O)c1Cl [Compound 3]
75 to 84%: pest or weed control at 70 g/ha [1, 5]
45 to 59%: pest or weed control at 140 g/ha [1, 7]
30 to 44%: pest or weed control at 70 g/ha [1, 7]
172 to 174 °C: melting point
95 to 100%: pest or weed control at 70 g/ha [1, 4] | pest or weed control at 140 g/ha [1, 4] | pest or weed control at 70 g/ha [1, 8] | pest or weed control at 140 g/ha [1, 8] | pest or weed control at 70 g/ha [2, 11] | pest or weed control at 140 g/ha [2, 11] | pest or weed control at 70 g/ha [2, 12] | pest or weed control at 140 g/ha [2, 12] | pest or weed control at 140 g/ha [2, 13] | pest or weed control at 70 g/ha [2, 14] | pest or weed control at 140 g/ha [2, 14] | pest or weed control at 70 g/ha [2, 15] | pest or weed control at 140 g/ha [2, 15] | pest or weed control at 70 g/ha [2, 17] | pest or weed control at 140 g/ha [2, 17]
85 to 94%: pest or weed control at 140 g/ha [1, 5] | pest or weed control at 70 g/ha [1, 6] | pest or weed control at 140 g/ha [1, 6] | pest or weed control at 70 g/ha [1, 9] | pest or weed control at 140 g/ha [1, 9] | pest or weed control at 70 g/ha [1, 10] | pest or weed control at 140 g/ha [1, 10] | pest or weed control at 70 g/ha [2, 13] | pest or weed control at 70 g/ha [2, 16] | pest or weed control at 140 g/ha [2, 16]
60 to 74%: pest or weed control at 70 g/ha [1, 3] | pest or weed control at 140 g/ha [1, 3]

COc1c(N)nc(-c2cc(F)c(Br)cc2F)nc1C(=O)O [Compound 11]
45 to 59%: pest or weed control at 70 g/ha [1, 3] | pest or weed control at 70 g/ha [1, 4] | pest or weed control at 140 g/ha [1, 4] | pest or weed control at 140 g/ha [2, 17]
95 to 100%: pest or weed control at 70 g/ha [2, 11] | pest or weed control at 140 g/ha [2, 11] | pest or weed control at 70 g/ha [2, 12] | pest or weed control at 140 g/ha [2, 12] | pest or weed control at 70 g/ha [2, 13] | pest or weed control at 140 g/ha [2, 13] | pest or weed control at 70 g/ha [2, 14] | pest or weed control at 140 g/ha [2, 14] | pest or weed control at 70 g/ha [2, 15] | pest or weed control at 140 g/ha [2, 15] | pest or weed control at 70 g/ha [2, 16] | pest or weed control at 140 g/ha [2, 16]
60 to 74%: pest or weed control at 140 g/ha [1, 3] | pest or weed control at 70 g/ha [1, 5] | pest or weed control at 140 g/ha [1, 5] | pest or weed control at 70 g/ha [1, 8] | pest or weed control at 140 g/ha [1, 8] | pest or weed control at 70 g/ha [1, 9] | pest or weed control at 70 g/ha [1, 10] | pest or weed control at 140 g/ha [1, 10]
75 to 84%: pest or weed control at 140 g/ha [1, 9]
85 to 94%: pest or weed control at 70 g/ha [1, 6] | pest or weed control at 140 g/ha [1, 6]
0 to 29%: pest or weed control at 70 g/ha [1, 7] | pest or weed control at 140 g/ha [1, 7] | pest or weed control at 70 g/ha [2, 17]
132 to 133 °C: melting point

Cc1c(-c2ccc(I)cc2)nc(C(=O)O)c(Cl)c1N [Compound 116, 4-Amino-3-chloro-6-(4-iodophenyl)-5-methylpicolinic acid]
75 to 84%: pest or weed control at 70 g/ha [2, 12]
30 to 44%: pest or weed control at 70 g/ha [1, 9]
45 to 59%: pest or weed control at 70 g/ha [1, 3] | pest or weed control at 140 g/ha [1, 3] | pest or weed control at 70 g/ha [1, 5] | pest or weed control at 70 g/ha [1, 6] | pest or weed control at 70 g/ha [1, 8] | pest or weed control at 140 g/ha [1, 9] | pest or weed control at 70 g/ha [1, 10]
95 to 100%: pest or weed control at 70 g/ha [2, 11] | pest or weed control at 140 g/ha [2, 11] | pest or weed control at 140 g/ha [2, 13] | pest or weed control at 70 g/ha [2, 16] | pest or weed control at 140 g/ha [2, 16]
179.5 to 181 °C: melting point
0 to 29%: pest or weed control at 70 g/ha [1, 4] | pest or weed control at 140 g/ha [1, 4] | pest or weed control at 70 g/ha [1, 7] | pest or weed control at 140 g/ha [1, 7] | pest or weed control at 70 g/ha [2, 15] | pest or weed control at 140 g/ha [2, 15] | pest or weed control at 70 g/ha [2, 17] | pest or weed control at 140 g/ha [2, 17]
60 to 74%: pest or weed control at 140 g/ha [1, 5] | pest or weed control at 140 g/ha [1, 6] | pest or weed control at 140 g/ha [1, 8] | pest or weed control at 140 g/ha [1, 10]
85 to 94%: pest or weed control at 140 g/ha [2, 12] | pest or weed control at 70 g/ha [2, 13] | pest or weed control at 70 g/ha [2, 14] | pest or weed control at 140 g/ha [2, 14]
